Marks after values point to notes of the source that are not given here.
Columns and labels:
[1] = system: Adiponectin; assay: Adiponectin in diet-induced obese mice; type: in vivo; details: 6 weeks on diet
[2] = system: irisin; assay: Plasma irisin in diet-induced obese mice; type: in vivo; details: six weeks, resveratrol 12.5 mg/kg diet, leucine 2.42%
Experimental: (§1) Six week old male c57/BL6 mice were fed a high-fat diet with fat increased to 45% of energy (Research Diets D12451) for 6 weeks to induce obesity.
As described in Example 5, C2C12 myotubes treated with the indicated combinations of compounds were used to produce conditioned media, with which 3T3-L1 adipocytes were then treated. Fatty acid oxidation was measured as in Example 5. Irisin levels were measured by Western blot and ELISA, both in conditioned media and in plasma from mice treated according to Example 4.
ELISA: Irisin was also detected in C2C12 incubation media from treated cells and in mouse plasma using a commercial enzyme immunoassay kit obtained from Phoenix Pharmaceuticals, Inc. (Burlingame, Calif.). This kit uses an irisin (FNDC5 [16-127] fragment) and streptavidin-horseradish peroxidase detection on a microplate reader at 450 nm.

[3] = system: IL-6; assay: Inflammatory biomarker IL-6 in diet-induced obese mice; type: in vivo; details: 6 weeks on diet
[4] = MicroPET/CT glucose and palmitate uptake in diet-induced obese mice; type: in vivo; details: 6 weeks on diet
From the text: as §1
MicroPET/CT (Glucose and Palmitate Uptake): At the end of the treatment period (6 weeks of treatment) subgroups of each treatment diet group (5 animals/group, 35 animals total) were used to measure whole body glucose and palmitate uptake via PET/CT Imaging. To visualize these compounds using microPET imaging, the glucose or palmitate was labeled with fluorine-18 (108 mins half life) or carbon-11 (20 mins half life), respectively. Each mouse was fasted for 4 hours, then anesthetized using 1-3% isoflurane delivered by nose cone or in a mouse-sized induction chamber purpose-built for small animal imaging protocols. While under anesthesia the mice were injected iv with <2 mCi of each tracer, then be left for a period of time (minutes to up ˜1 hour) to allow the uptake of the tracer. During the scan, mice were kept warm using a thermostatically controlled heated bed and were treated with ophthalmic ointment prior to scanning. Following the live scan the mice were returned to their cage and revived. Mice were monitored constantly during this time. Following live data acquisition the mice were sacrificed by isoflurane overdose and organs harvested for further experiments.

[5] = system: C-reactive protein; assay: Inflammatory biomarker C-reactive protein in diet-induced obese mice; type: in vivo; details: 6 weeks on diet
[6] = system: SIRT1; assay: Sirt1 activity (fluorimetric kit), Example 5; type: cell-based; details: leucine 0.5 mM, HMB 5 μM, resveratrol 200 nM; summary in Example 5
Experimental: Sirt1 Activity: SIRT1 activity was measured by using the SIRT1 Fluorimetric Drug Discovery Kit (BML-AK555, ENZO Life Sciences International, Inc. PA, USA). The assay measures SIRT1 activity by the degree of deacetylation of a standardized substrate containing an acetylated lysine side chain. The substrate utilized is a peptide containing […] of human […]]), an established target of SIRT1 activity; SIRT1 activity is directly proportional to the degree of deacetylation of […]. Samples were incubated with peptide substrate (25 μM), and NAD^+ (500 μM) in a phosphate-buffered saline solution at 37° C. on a horizontal shaker for 45 minutes. The reaction was stopped with the addition of 2 mM nicotinamide and a developing solution that binds to the deacetylated lysine to form a fluorophore.

[7] = system: MCP-1; assay: Inflammatory biomarker MCP-1 in diet-induced obese mice; type: in vivo; details: 6 weeks on diet
[8] = system: Adipocytes (3T3-L1); assay: Fatty acid oxidation (3H-palmitate) in 3T3-L1 adipocytes; type: cell-based; details: leucine 0.5 mM, resveratrol 200 nM
Experimental: High glucose medium reduced fatty acid oxidation by 46% (p<0.05).
Fatty acid oxidation was measured using ^3H-labeled palmitate oxidation, with the ^3H label trapped as water as a result of the fat oxidation. The ^3H was then measured via scintillation counter.

[9] = Indices of insulin sensitivity (plasma glucose, insulin, HOMAIR) in diet-induced obese mice; type: in vivo; details: 6 weeks on diet; for Glucose (mM) / Insulin (μU/mL): plasma
From the text: Insulin sensitivity can be measured using a variety of techniques, including HOMAIR. HOMAIR, which is the homeostasis model assessment of insulin resistance can be used as a screening index of changes in insulin sensitivity. HOMAIR can be calculated via standard formula from fasting plasma insulin and glucose as follows: HOMAIR=[Insulin (uU/mL)×glucose (mM)]/22.5.
as §1
(§2) At the of the treatment period (6 weeks) all animals were humanely euthanized, and blood and tissues collected for further experiments.

[10] = Oxygen consumption/substrate utilization (metabolic chambers) in diet-induced obese mice; type: in vivo
Experimental: as §1
Oxygen Consumption/Substrate Utilization: at the end of the obesity induction period (day 0 of treatment group) and at 2 weeks and 6 weeks of treatment, oxygen consumption and substrate utilization was measured via metabolic chambers using the Comprehensive Lab Animal Monitoring Systems (CLAMS, Columbus Instruments, Columbus, Ohio) in subgroups of each treatment group. Each animal was placed in individual cages without bedding that allow automated, non-invasive data collection. Each cage is an indirect open circuit calorimeter that provides measurement of oxygen consumption, carbon dioxide production, and concurrent measurement of food intake. All mice were acclimatized to the chambers for 24 hours prior to the experiment and maintained under the regular 12:12 light:dark cycle with free access to water and food. All experiments were started in the morning and data were collected for 24 hours. Each chamber was passed with 0.6 l of air/min and was sampled for 2 min at 32-minute intervals. Exhaust O2 and CO2 content from each chamber was compared with ambient O2 and CO2 content. Food consumption was measured by electronic scales.

[11] = Body weight, weight gain and visceral adiposity in diet-induced obese mice; type: in vivo; details: 6 weeks on diet
From the text: as §1, §2

[12] = system: UCP1; assay: Subcutaneous adipose UCP1 mRNA expression in diet-induced obese mice; type: in vivo; details: six weeks, resveratrol 12.5 mg/kg diet
[13] = biological target: T1, Sirt1 (Mus musculus, UniProt Q923E4); assay: Adipose tissue Sirt1 activity in diet-induced obese mice; type: in vivo
T1 construct: from tissue; host or cells: adipose tissue of c57/BL6 mice
T1 sequence (Q923E4 1-737): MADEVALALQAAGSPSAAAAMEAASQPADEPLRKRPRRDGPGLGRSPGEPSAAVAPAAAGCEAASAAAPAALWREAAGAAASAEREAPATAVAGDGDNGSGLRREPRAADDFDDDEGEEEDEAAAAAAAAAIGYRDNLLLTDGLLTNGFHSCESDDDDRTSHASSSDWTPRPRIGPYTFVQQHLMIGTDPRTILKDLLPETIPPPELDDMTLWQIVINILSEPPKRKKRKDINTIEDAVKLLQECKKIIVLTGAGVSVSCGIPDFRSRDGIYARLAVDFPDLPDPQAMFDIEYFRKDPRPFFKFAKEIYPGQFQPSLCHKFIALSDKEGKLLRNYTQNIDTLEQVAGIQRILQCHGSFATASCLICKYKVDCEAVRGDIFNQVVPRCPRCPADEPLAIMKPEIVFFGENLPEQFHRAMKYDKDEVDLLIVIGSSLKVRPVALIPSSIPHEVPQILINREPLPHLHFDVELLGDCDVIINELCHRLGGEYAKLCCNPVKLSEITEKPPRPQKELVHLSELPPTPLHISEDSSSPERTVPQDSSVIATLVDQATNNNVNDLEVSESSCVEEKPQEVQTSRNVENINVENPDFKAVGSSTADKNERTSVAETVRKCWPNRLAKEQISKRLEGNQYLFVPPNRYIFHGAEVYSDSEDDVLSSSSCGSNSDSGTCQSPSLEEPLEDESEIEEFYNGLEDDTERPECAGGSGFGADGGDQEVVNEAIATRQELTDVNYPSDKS

[14] = high resveratrol 225 mg/kg diet
[15] = low resveratrol 12.5 mg/kg diet, low HMB 2 g CaHMB/kg diet, high HMB 10 g CaHMB/kg diet, leucine 2.42% of diet

## Oc1ccc(/C=C/c2cc(O)cc(O)c2)cc1 [resveratrol, 3,5,4′-Trihydroxy-trans-stilbene]
[1]; [14]
  Adiponectin (ng/mL): 14.8 ± 1.8^b ng/mL
[1]; [15]
  Adiponectin: 12.4 ± 1.1 ng/mL
[2]
  increase in plasma irisin: no independent effect
[3]; [14]
  IL-6 (pg/mL): 14.1 ± 1.3^b pg/mL
[3]; [15]
  IL-6 (pg/mL): 23.2 ± 2.9^a pg/mL
[4]; [14]
  Fat oxidation (PET palmitate uptake; Muscle SUV): 2.29 ± 0.11^b SUV
  Muscle Glucose Uptake (18F-deoxyglucose SUV): 3.87 ± 0.32^a SUV
[4]; [15]
  Fat oxidation (PET palmitate uptake; Muscle SUV): 1.51 ± 0.44^a SUV
  Muscle Glucose Uptake (18F-deoxyglucose SUV): 3.63 ± 1.29^a SUV
[5]; [14]
  C-reactive protein (ng/mL): 123.9 ± 35.3^a ng/mL
[5]; [15]
  C-reactive protein (ng/mL): 134.8 ± 8.5^a ng/mL
[6]
  stimulation of Sirt1 activity: no effect
[7]; [14]
  MCP-1 (pg/mL): 27.3 ± 6.8^b pg/mL
[7]; [15]
  MCP-1 (pg/mL): 104.4 ± 16.5^a pg/mL
[8]; high (25 mM) glucose, 4 hours, HMB 5 uM, vs. control
  increase in fatty acid oxidation, high glucose: no effect
[8]; HMB 5 μM, summary in Example 5
  stimulation of fatty acid oxidation: no effect
[9]; [14]
  HOMAIR: 0.59 ± 0.26^b
  Glucose (mM): 5.14 ± 0.75^a mM
  Insulin (μU/mL): 10.1 ± 2.7^a μU/mL
[9]; [15]
  HOMAIR: 2.41 ± 0.66^a
  Glucose (mM): 5.14 ± 0.85^a mM
  Insulin (μU/mL): 10.4 ± 1.6^a μU/mL
[10]; [14]
  Heat Production: 0.552 ± 0.015^b
[10]; [15]
  Heat Production: 0.517 ± 0.014^a
[11]; [14]
  Visceral Adipose Volume (mm^3): 6031 ± 323^a mm^3
  Weight (g): 38.7 ± 1.2^a g
  Weight gain (g): 22.3 ± 2.4^a g
[11]; [15]
  Visceral Adipose Volume (mm^3): 6551 ± 575^a mm^3
  Weight (g): 40.8 ± 2.5^a g
  Weight gain (g): 20.9 ± 1.5^a g
[12]
  increase in UCP1 expression in white subcutaneous adipose tissue: no independent effect
[13]; high dose resveratrol (FIG. 10)
  adipose tissue Sirt1 activity: non-significant trend towards an increase
[13]; low dose of resveratrol, HMB, or their combinations with HMB or leucine (FIG. 10)
  adipose tissue Sirt1 activity: Neither resveratrol nor HMB exerted significant independent effects
